Measurements: article PMC8296708, “The pan HDAC inhibitor Givinostat improves muscle function and histological parameters in two Duchenne muscular dystrophy murine models expressing different haplotypes of the LTBP4 gene” (Skeletal Muscle, 2021)

Tests used:
Format in all cases: in vivo, mouse (D2.B10-Dmd^mdx/J)
[1] = Body weight of D2.B10 mice
Description: In the efficacy studies, Givinostat powder (ITF2357) was suspended in 0.5% methylcellulose (Sigma-Aldrich) and administered p.o. (by gavage) at the doses of 0.1, 0.3, 1, 5, 10, 25, and 37.5 mg/kg qdx5x15weeks (administration volume per mouse: 10 mL/kg) in mdx mice (see Additional Figure 1A). Vehicle-treated mdx mice received 0.5% methylcellulose suspension. Givinostat suspension was stored at + 4 °C, and it was freshly prepared every 7 days. Probably due to the impairment of their tongue and masticatory muscles, the oral gavage procedure turned out to be difficult to perform, and chronic treatment of D2.B10 mice by this route was considered to bear a high risk of damaging the esophagus. For this reason, Givinostat was administered in the drinking water. Givinostat was dissolved in filtered tap water and was administered in drinking water (throughout 24 h) for 105 days at the dose of 1, 5, 10, and 37.5 mg/kg/day, according to a daily estimate of water consumption of 4 ml/mouse/day. Water consumption was weekly monitored throughout the entire duration of the study weighing the bottle of each cage (maximum 4 mice per cage). Prednisone and Deflazacort powder (Sigma-Aldrich) was dissolved in 2% DMSO (Sigma-Aldrich) and diluted in sterile saline on injection days. Both drugs were administered weekly (for 15 weeks) by i.p. injection at the dose of 1 mg/kg in a volume of 10 mL/kg. […] All mice were monitored daily and tolerability was evaluated on the basis of BW and clinical signs.
In both efficacy studies, the effectiveness of treatments was evaluated every week by measuring the forelimb strength by a grip strength meter (Ugo Basile SRL, Italy). BW of mdx (see Additional Figure 2) and D2.B10 mice (see Additional Figure 3) was also measured in order to normalize the absolute grip strength of each mouse with respect to its BW. […] The highest recorded value of maximal normalized strength (FNmax) obtained for each mouse at all the time points (from T0 to T15) was used for further analysis.

D2.B10 mice [2] = test: Muscle fibrosis by Sirius Red staining in D2.B10 mice; conditions: for Reduction of fibrosis in DIA: T8; for Reduction of fibrosis in TA: T8, Givinostat 37.5 mg/kg, steroids 1 mg/kg, vs vehicle; for Effect on fibrosis in GAS: T16; for Efficacy on fibrosis in DIA: T16, Givinostat 37.5 mg/kg, prednisone
Excerpt: (§1) Tibialis anterior (TA), gastrocnemius (GAS), DIA, and heart were collected from mice maintained under isoflurane anesthesia and sacrificed by cervical dislocation. These muscles were collected from C57BL/10J wt and mdx (5 mice/group) at the end of treatments and from DBA/2J wt and D2.B10 mice (5 mice/group) at two different time points to be examined by a pathologist (for more details see Additional Table 1). Due to the results obtained by the functional tests, muscles from only some treatment groups were analyzed in both DMD models (see Additional Table 1). All the collected muscles were fixed in 10% buffered formalin solution (Bio-optica, Milan, Italy) at + 4 °C for at least 48 h. After fixation, muscular samples were transversely trimmed, caged, and paraffin embedded overnight with an Automated Vacuum Tissue Processor Floor (ETP, Histo-Line Laboratories) and included in paraffin blocks. Serial transverse cross-sections (4 μm thick) were cut with a microtome (Leica RM 2255), collected onto uncoated glass slides, and stained using a standard protocol for hematoxylin and eosin (Mayer hematoxylin & Aqueous G Eosin 1%, Bio-Optica) and Sirius Red staining (Direct Red 80, Sigma-Aldrich). For the image analysis and quantitation, hematoxylin and eosin- and Sirius Red-stained slides were examined with an Olympus BX51 light microscope. From each sample, 1 to 3 random microphotographs at the magnification of × 4 and × 10 (TA, GAS and heart) or × 20 (DIA) were collected using Image-Pro Plus system. The digital images were processed by a pathologist using ImageJ software (U.S. National Institutes of Health, Bethesda, MD, USA). To quantify CSA and centralized nuclei (%) on hematoxylin and eosin-stained sections, one hundred myofibers were manually measured for each muscle/mouse using a tablet pen (Wacom Intruos) and analyzed by the ImageJ software after a linear calibration of 150 μm. The fibrotic area, corresponding to the area stained in red, was compared to the total area of the tissue section, and the results were expressed as percentage fibrosis. The % of fibrosis of muscles in the different treatment groups was expressed by averaging the three values obtained from each muscle.

D2.B10 mice [3] = test: Myofiber cross-sectional area (CSA) in D2.B10 mice; conditions: for TA CSA / GAS CSA: D2.B10 mice, Givinostat 37.5 mg/kg
Excerpt: as §1
The deciles of the CSA of the animals treated with Givinostat at the different doses were plotted against the corresponding deciles of the vehicle-treated mice and a linear regression analysis was performed on natural [CSAtreated = b CSAcontrol + a] and log_transformed data [log(CSAtreated) = log(a) + b log(CSAcontrol)]. […] In case of untransformed data, this means that the effect of Givinostat treatment is additive and any decile of the CSAtreatment distribution may be derived from the control data summing up a constant quantity (S) to each fiber AREA of the control group (CSAtreated = CSAcontrol + S). In case of log_transformed data, the effect of Givinostat has to be considered as a multiplicative factor on any generic fiber of the muscle under evaluation, whose size, after the treatment, results K times larger in comparison to the control group value (CSAtreated […] = K × CSAcontrol, with K = 10^a). The S or K parameter values were then determined through an iterative estimation procedure, based on sum of squares (SSQ) minimization, directly comparing the CSA distribution observed in treated animals with that obtained summing up the S value or multiplying by K the CSA values of the control group.

[4] = T8, prednisone 1 mg/kg (vehicle 600)
[5] = T8, prednisone 1 mg/kg (vehicle 1050)
[6] = T16, prednisone 1 mg/kg (vehicle 300)

SMILES: CCN(CC)Cc1ccc2cc(COC(=O)Nc3ccc(C(=O)NO)cc3)ccc2c1 [Givinostat]
- Body weight vs vehicle-treated mice ([1]; D2.B10 mice): no significant differences
- Reduction of fibrosis in DIA (D2.B10 mice [2]): about 33%
- Reduction of fibrosis in TA (D2.B10 mice [2]): about 22%
- Effect on fibrosis in GAS (D2.B10 mice [2]): No significant effect
- Efficacy on fibrosis in DIA (D2.B10 mice [2]): lost
- TA CSA (D2.B10 mice [3]; [4]): 300 μm^2
- GAS CSA (D2.B10 mice [3]; [5]): 600 μm^2
- GAS CSA (D2.B10 mice [3]; [6]): 450 μm^2
- TA CSA (D2.B10 mice [3]; [6]): 300 μm^2

SMILES: C[C@]12C=CC(=O)C=C1CC[C@@H]1[C@@H]2C(=O)C[C@@]2(C)[C@H]1CC[C@]2(O)C(=O)CO [prednisone]
- Body weight vs vehicle-treated mice ([1]; mouse, in vivo): no significant differences
- Effect of steroid on fibrosis, summary (D2.B10 mice [2]; 1 mg/kg i.p. weekly): significantly reduced fibrosis in TA, GAS, and DIA
- Reduction of fibrosis in DIA (D2.B10 mice [2]): ~45%
- Reduction of fibrosis in TA (D2.B10 mice [2]): about 22%
- Reduction of fibrosis in GAS (D2.B10 mice [2]; T8, vs vehicle): about 26%
- Effect on fibrosis in GAS (D2.B10 mice [2]): No significant effect
- Efficacy on fibrosis in DIA (D2.B10 mice [2]): lost
- TA CSA (D2.B10 mice [3]; [4]): 300 μm^2
- GAS CSA (D2.B10 mice [3]; [5]): 600 μm^2
- GAS CSA (D2.B10 mice [3]; [6]): 300 μm^2
- TA CSA (D2.B10 mice [3]; [6]): 300 μm^2
- Effect of steroid on cross-sectional area and centralized nuclei (D2.B10 mice [3]; D2.B10 muscles, 1 mg/kg i.p. weekly): unable to affect cross-sectional area or the number of centralized nuclei
